Counter-ions that a name gives are not always drawn.
What was measured:
Type in all cases: physicochemical
[1] = Dynamic vapor sorption (DVS)
[2] = Water uptake of the desolvated form in contact with air (water by KF)
Procedure: (§1) The stable form screen of Compound I bis-HCl was performed using 20 solvents (5-10 volumes) in an attempt to discover all crystalline forms, as summarized in Table 2. Four crystalline solvates were discovered in the slurries, which utilized alcohols such as methanol, ethanol and 1-propanol. With ethanol, the initial precipitation was Compound I bis-HCl Form III solids; after stirring for two weeks, the solids became Compound I bis-HCl Form V. The shapes of these crystals appeared as needles, shown in FIG. 47. After vacuum drying, these solvates lost solvents easily and changed to Compound I bis-HCl Form VI. […] For example, Compound I bis-HCl Form VI contains 8.8% water by KF after drying the methanol solvate and contains 5.2% water after drying the ethanol solvate. Each form was characterized by XRPD, DSC and TGA (FIGS. 4-19). TGA and DSC analysis were conducted after the samples were dried at room temperature in vacuum oven for 1 hour.

[3] = Stable form screen of Compound I bis-HCl: solubility in solvents; settings: thermodynamic from solid
Procedure: as §1

COC[C@H]1C[C@@H](c2ncc(-c3ccc4c(c3)COc3cc5c(ccc6nc([C@@H]7CC[C@H](C)N7C(=O)[C@@H](NC(=O)OC)C(C)C)[nH]c65)cc3-4)[nH]2)N(C(=O)[C@H](NC(=O)OC)c2ccccc2)C1 [Compound I bis-HCl Form VI, methyl {(2S)-1-[(2S,5S)-2-(9-{2-[(2S,4S)-1-{(2R)-2-[(methoxycarbonyl)amino]-2-phenylacetyl}-4-(methoxymethyl)pyrrolidin-2-yl]-1H-imidazol-5-yl}-1,11-dihydroisochromeno[4′,3′:6,7]naphtho[1,2-d]imidazol-2-yl)-5-methylpyrrolidin-1-yl]-3-methyl-1-oxobutan-2-yl}carbamate bis-hydrochloride]
Hygroscopicity by DVS analysis ([1]; FIG. 19): hygroscopic | Water by KF ([2]; after drying the ethanol solvate): 5.2% | Water by KF ([2]; after drying the methanol solvate): 8.8% | Water absorption in contact with air ([2]; desolvated form): absorbs water quickly

COC[C@H]1C[C@@H](c2ncc(-c3ccc4c(c3)COc3cc5c(ccc6nc([C@@H]7CC[C@H](C)N7C(=O)[C@@H](NC(=O)OC)C(C)C)[nH]c65)cc3-4)[nH]2)N(C(=O)[C@H](NC(=O)OC)c2ccccc2)C1 [Compound I bis-HCl, methyl {(2S)-1-[(2S,5 S)-2-(9-{2-[(2S,4S)-1-{(2R)-2-[(methoxycarbonyl)amino]-2-phenylacetyl}-4-(methoxymethyl)pyrrolidin-2-yl]-1H-imidazol-5-yl}-1,11-dihydroisochromeno[4′,3′:6,7]naphtho[1,2-d]imidazol-2-yl)-5-methylpyrrolidin-1-yl]-3-methyl-1-oxobutan-2-yl}carbamate bis-hydrochloride]
solubility ([3]; ethanol, organic solvent or mixture, solvent EtOH, initial Form III, final Form V): 9000 µg/mL | solubility ([3]; ethanol/water, aqueous with cosolvent or surfactant or cyclodextrin, solvent EtOH/water, Solution): > 20000 µg/mL | solubility ([3]; methanol, organic solvent or mixture, solvent MeOH, final form Compound I bis-HCl Form II): 50000 µg/mL | solubility ([3]; organic solvent or mixture, solvent 1-Propanol, final form Compound I bis-HCl Form IV): 9000 µg/mL | solubility ([3]; organic solvent or mixture, solvent 2-Butanol, Solution): > 50000 µg/mL | solubility ([3]; organic solvent or mixture, solvent Acetone, Mesophase): 6000 µg/mL | solubility ([3]; organic solvent or mixture, solvent DCM, Solution): > 20000 µg/mL | solubility ([3]; organic solvent or mixture, solvent Ethyl acetate, Mesophase): < 1000 µg/mL | solubility ([3]; organic solvent or mixture, solvent IPAc, Mesophase): < 1000 µg/mL | solubility ([3]; organic solvent or mixture, solvent MIBK, Mesophase): < 1000 µg/mL | solubility ([3]; organic solvent or mixture, solvent MTBE, Amorphous): < 1000 µg/mL | solubility ([3]; organic solvent or mixture, solvent Toluene, Mesophase): < 1000 µg/mL | solubility ([3]; organic solvent or mixture, solvent heptane, Amorphous): < 1000 µg/mL | solubility ([3]; solvent Water, final form Amorphous): < 1000 µg/mL

COC[C@H]1C[C@@H](c2ncc(-c3ccc4c(c3)COc3cc5c(ccc6nc([C@@H]7CC[C@H](C)N7C(=O)[C@@H](NC(=O)OC)C(C)C)[nH]c65)cc3-4)[nH]2)N(C(=O)[C@H](NC(=O)OC)c2ccccc2)C1 [Compound I D-tartrate Form II, methyl {(2S)-1-[(2S,5S)-2-(9-{2-[(2S,4S)-1-{(2R)-2-[(methoxycarbonyl)amino]-2-phenylacetyl}-4-(methoxymethyl)pyrrolidin-2-yl]-1H-imidazol-5-yl}-1,11-dihydroisochromeno[4′,3′:6,7]naphtho[1,2-d]imidazol-2-yl)-5-methylpyrrolidin-1-yl]-3-methyl-1-oxobutan-2-yl}carbamate D-tartrate]
Moisture uptake in DVS ([1]; between about 10-50% RH, FIG. 53): about 7%

Reference: patent US11203599B2, “Solid forms of an antiviral compound” (Gilead Pharmasset LLC, priority 2014, dated 2021)
